# How the values were obtained:
# [1] = target: T1, human platelet PLA2 (Homo sapiens, UniProt P14555); test: in vitro inhibition of human platelet PLA2 (hydrolysis of [1-14C] oleic acid-labelled E. coli membrane phospholipids); type: biochemical; settings: pH 7.4, 30 minutes incubation
# T1 construct: The PLA2 enriched supernatant fluid is removed and the amount of protein is determined by the Lowry method; from tissue; host or cells: human platelets (expired, blood bank), acid extract, 10,000 g supernatant
# T1 sequence (P14555 21-144): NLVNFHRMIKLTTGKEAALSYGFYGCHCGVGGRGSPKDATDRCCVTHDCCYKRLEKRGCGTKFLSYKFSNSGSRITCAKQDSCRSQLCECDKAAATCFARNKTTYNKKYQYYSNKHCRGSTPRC
# Protocol: The ability of the compounds to inhibit the activity of PLA2 enzyme is measured in the following in vitro assay.
# The assay is carried out as follows:
# E. coli, cultured to exponential growth, are sedimented for 15 minutes at 10,000 g and resuspended in sterile isotonic saline (1-3 ml). 10-25 μCi [1-^14 C] oleic acid (or arachidonic acid) is added to a sterile flask, evaporated by N2 and resolubilized with 0.3 ml 20% fatty acid-free BSA. 75-100 ml of nutrient broth and 1 ml E. coli are then added to each flask and incubated for 2-3 hours at 37° C. [1-^14 C] oleic acid labelled E. coli are then sedimented, suspended in saline and added to fresh nutrient broth and incubated for 1.5 hours at 37° C. to complete [1-^14 C] oleic acid incorporation into the phospholipids. After overnight refrigeration of cultures, E. coli are again sedimented, suspended in saline and autoclaved for 15 minutes at 120° C. E. coli cultures are washed twice with saline (first wash contains 1% BSA) and resuspended in saline. […] Cell number is determined by measuring the optical density at 550 nm ([…]=1 O.D.). The amount of radioactivity associated with cells is determined by counting a defined volume of cell suspension. […]
# Expired human platelets from the blood bank are centrifuged for 15 minutes at 200 g to obtain a platelet rich plasma fraction and to remove the red blood cells. […] The PLA2 enriched supernatant fluid is removed and the amount of protein is determined by the Lowry method. […]
# The assay measures the hydrolysis of E. coli membrane phospholipids and the release of free [1-^14 C] oleic acid from the C-2 position of phospholipids by human platelet PLA2. […] Free fatty acid ([1-^14 C] oleic acid labeled phospholipids are visualized with exposure to iodine vapors. Radioactive areas that co-chromatographed with authentic oleic acid and phospholipid standards are cut out and placed in a scintillation vial. One ml CH3 OH and 10 ml Hydrofluor are added to each cut strip and radioactivity is determined by liquid scintillation counting.
# The percent hydrolysis is calculated by the following equation: [formula]
# [2] = system: lipoxygenase and/or cyclooxygenase pathways of arachidonic acid; test: arachidonic acid (AA)-induced murine ear edema test; type: in vivo, Swiss Webster female mice; settings: 1 mg/ear, drug 30 minutes prior to AA (2 mg/ear), ear thickness measured after 1 hour
# Source text: (§1) The ability of the compounds of the invention to inhibit the lipoxygenase and/or cyclooxygenase pathways of arachidonic acid is examined in the in vivo arachidonic acid (AA)-/12-O-tetradecanoylphorbol acetate (TPA)-induced murine ear edema test.
# (§2) According to this test, Swiss Webster female mice (Buckshire), approximately 8 weeks old, are placed into plastic boxes in groups of six. Eight groups of mice receive AA topically on the right ear, and another 8 groups receive TPA topically on the right ear. AA and TPA are dissolved in acetone at concentrations of 100 mg/ml ad 100 μg/ml respectively. The phlogistics are applied to the right ear by the means of an automatic pipet. Volumes of 10 μl are applied to the inner and outer surfaces of the ear. Each mouse receives either 2 mg/ear AA or […] TPA. The left ear (control) receives acetone delivered in the same manner. […]
# (§3) Measurements are taken with Oditest calipers, 0-10 mm with 0.01 graduations. The right and left ears are measured after 1 hour AA-induced inflammation and 4 hours after TPA-induced inflammation.
# (§4) The difference between right and left ear thickness is calculated and the significance is determined by a one way analysis of variance with Dunnett's comparisons to control (P=0.05). Drug effects are expressed as a percent change from control values: [formula]
# [3] = system: lipoxygenase and/or cyclooxygenase pathways of arachidonic acid; test: 12-O-tetradecanoylphorbol acetate (TPA)-induced murine ear edema test; type: in vivo, Swiss Webster female mice; settings: 1 mg/ear, drug 30 minutes after TPA (4 μg/ear), ear thickness measured after 4 hours
# Source text: as §1, §2, §3, §4
SMILES,inhibition at 100 µM [1] [%],"% Change from Control, TOPICAL, AA [2] [%]","% Change from Control, TOPICAL, TPA [3] [%]"
"CCCCCCCCCCCCNC(=O)NCCOP1(=O)OCCO1 [Example 1, N-[2-(1,3,2-Dioxaphospholan-2-yloxy)ethyl]-N'-dodecylurea P-oxide]",32,,
"CCCCCCCCCCCCNC(=O)OCCOP1(=O)OCCO1 [Example 2, Dodecylcarbamic acid 2-(1,3,2-dioxaphospholan-2-yloxy)ethyl ester P-oxide]",92,-16,-38
"CCCCCCCCCCCCCCCCS(=O)(=O)NCCOP1(=O)OCCO1 [Example 3, N-[2-(1,3,2-dioxaphospholan-2-yloxy)ethyl]-1-hexadecanesulfonamide P-oxide]",28,,

# Reference: patent US4710580A, “2-[1,3,2-dioxaphospholan-2-yloxy]ethyl compounds” (American Home Products Corporation, priority 1986, dated 1987)
